pEC50: −log10 of the molar value. Read-outs that look alike come from different tables or passages of the source.

The target in one series is T1, PPARγ-RXRα heterodimer (Homo sapiens, UniProt P37231).
T1 construct: expressed in transfected cells; host or cells: CHO-K1
T1 sequence (P37231 1-477 isoform P37231-2): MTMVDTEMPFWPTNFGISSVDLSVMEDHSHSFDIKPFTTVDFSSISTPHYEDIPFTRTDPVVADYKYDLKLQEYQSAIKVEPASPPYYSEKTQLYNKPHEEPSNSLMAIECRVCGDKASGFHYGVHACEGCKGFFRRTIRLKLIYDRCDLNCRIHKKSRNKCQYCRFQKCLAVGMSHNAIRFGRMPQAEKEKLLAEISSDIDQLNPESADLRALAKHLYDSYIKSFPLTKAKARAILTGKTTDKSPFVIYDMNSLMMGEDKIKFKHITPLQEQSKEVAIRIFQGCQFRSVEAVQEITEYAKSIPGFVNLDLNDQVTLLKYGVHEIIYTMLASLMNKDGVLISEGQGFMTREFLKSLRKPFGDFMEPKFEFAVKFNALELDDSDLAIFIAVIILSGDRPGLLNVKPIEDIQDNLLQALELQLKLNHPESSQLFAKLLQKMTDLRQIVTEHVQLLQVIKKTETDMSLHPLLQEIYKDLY
T1 sequence (P19793 1-462 partner): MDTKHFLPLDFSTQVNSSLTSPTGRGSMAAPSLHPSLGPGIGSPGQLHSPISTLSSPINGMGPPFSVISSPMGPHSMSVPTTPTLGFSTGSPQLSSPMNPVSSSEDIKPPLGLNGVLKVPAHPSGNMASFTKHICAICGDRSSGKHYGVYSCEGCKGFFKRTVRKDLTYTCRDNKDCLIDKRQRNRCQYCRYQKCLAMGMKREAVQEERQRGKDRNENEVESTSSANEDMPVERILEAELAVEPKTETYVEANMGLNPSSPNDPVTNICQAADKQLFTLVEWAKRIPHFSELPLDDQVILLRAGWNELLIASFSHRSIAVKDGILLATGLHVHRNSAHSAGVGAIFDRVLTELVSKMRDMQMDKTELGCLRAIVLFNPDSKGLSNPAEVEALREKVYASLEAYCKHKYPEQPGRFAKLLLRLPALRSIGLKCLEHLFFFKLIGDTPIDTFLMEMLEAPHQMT
Put plainly: PPARγ-RXRα heterodimer ligand activity, luciferase reporter in PPARγ:RXRα:4ERPP/CHO-K1 cells (Test Example 3). It counts as cell-based. The note with it: 18-48 hours, concentration for 50% of the maximum fold induction. The gist of the method:
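Stable CHO-K1 line co-expressing hPPARγ/RXR with 4ERPP-TK luciferase reporter, 2×10^4 cells per well, treated 18-48 h at 37° C. in HAM F12 with 0.1% fatty acid-free BSA. Luciferase fold induction versus untreated taken as 1; EC50 is concentration giving 50% of maximal fold induction.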
Background: In a reporter assay the amount or activity of a reporter protein is the signal.

The next series has as its system KKAY mice. Nature of the series: Hypoglycemic and hypolipidemic actions in mice (Test Example 1). It counts as in vivo. Conditions: Mus musculus, po, 96 h, 0.005% in powdery diet, four days, non-treated group taken as 100%. In a few lines: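 KKAY mice (9 to 12 weeks old, 5 per group) were fed diet containing 0.005% test compound ad libitum for four days. Plasma glucose and triglycerides from orbital venous blood were measured enzymatically, reported as % decrease relative to untreated group (100%).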

Where [1] appears, read: rate of decrease in blood glucose level, read-out: Hypoglycemic action (%).
The mark [2] stands for this setting: rate of decrease in blood triglyceride level, read-out: Hypolipidemic action (%).

As usually defined, the pEC50 is the negative decadic logarithm of the EC50, by convention in mol/L. A high value points to a small EC50. By melting point is commonly meant the temperature of the solid-liquid transition. In the case of `CCC(CC)c1nn(-c2ccc(C(F)(F)F)cn2)cc1CCCOc1c(C)cccc1CC(=O)O` [Example 213, [2-(3-{3-(1-ethylpropyl)-1-[5-(trifluoromethyl)-2-pyridyl]-1H-pyrazol-4-yl}propoxy)-3-methylphenyl]acetic acid], the melting point fell in the range of 125 to 126 °C. At PPARγ-RXRα heterodimer, this compound showed a pEC50 of 8.11. Also, the inhibition in vivo at 0.005 % in diet in the series on KKAY mice (setting [1]) is 51%. For the same compound, in the series on KKAY mice (setting [2]), the inhibition in vivo at 0.005 % in diet came to 52%.
The compound `CCC(CC)c1nn(-c2ccc(Cl)cn2)cc1CCCOc1c(CC(=O)O)cccc1OC` [Example 223, (2-{3-[1-(5-chloro-2-pyridyl)-3-(1-ethylpropyl)-1H-pyrazol-4-yl]propoxy}-3-methoxyphenyl)acetic acid] displayed a melting point of 85 to 86 °C. The same compound had a pEC50 on PPARγ-RXRα heterodimer of 7.62. The inhibition in vivo at 0.005 % in diet in the series with KKAY mice (setting [1]) worked out at 38%. Also, in the series on KKAY mice (setting [2]), the inhibition in vivo at 0.005 % in diet was determined as 55%.
For the compound `CCc1cccc(CC(=O)O)c1OCCCc1cn(-c2ccc(C(F)(F)F)cn2)nc1C(C)C` [Example 227, [3-ethyl-2-(3-{3-isopropyl-1-[5-(trifluoromethyl)-2-pyridinyl]-1H-pyrazol-4-yl}propoxy)phenyl]acetic acid], the melting point was in the range of 155 to 156 °C. Moreover, the pEC50 at PPARγ-RXRα heterodimer was 7.66. For the same compound, the inhibition in vivo at 0.005 % in diet in the series with KKAY mice (setting [1]) was 43%. In addition, the inhibition in vivo at 0.005 % in diet with KKAY mice (setting [2]) amounted to 26%.
For `CCc1cccc(CC(=O)O)c1OCCCc1cn(-c2ccc(C(F)(F)F)nn2)nc1C(C)C` [Example 245, [3-ethyl-2-(3-{3-isopropyl-1-[6-(trifluoromethyl)pyridazin-3-yl]-1H-pyrazol-4-yl}propoxy)phenyl]acetic acid], in that order: 126 to 127 °C, 7.72, 42% and 55%.
On to `COc1cccc(CC(=O)O)c1OCCCc1cn(-c2ccc(C(F)(F)F)nn2)nc1C(C)C` [Example 274, [2-(3-{3-isopropyl-1-[6-(trifluoromethyl)pyridazin-3-yl]-1H-pyrazol-4-yl}propoxy)-3-methoxyphenyl]acetic acid], for which the melting point was 92 to 93 °C. Further, the pEC50 at PPARγ-RXRα heterodimer was 7.09. Also, in the series on KKAY mice (setting [1]), the inhibition in vivo at 0.005 % in diet came out at 50%. Besides, the inhibition in vivo at 0.005 % in diet with KKAY mice (setting [2]) turned out to be 60%.
Compound `COc1cccc(CC(=O)O)c1OCCCc1cn(-c2ccc(Cl)cn2)nc1C(C)C` [Example 311, (2-{3-[1-(5-chloro-2-pyridinyl)-3-isopropyl-1H-pyrazol-4-yl]propoxy}-3-methoxyphenyl)acetic acid] gave a melting point of 148 to 149 °C. The pEC50 at PPARγ-RXRα heterodimer was 7.00. Moreover, the inhibition in vivo at 0.005 % in diet with KKAY mice (setting [1]) came out at 52%. Besides, the inhibition in vivo at 0.005 % in diet with KKAY mice (setting [2]) came out at 29%.
The compound `CCC(CC)c1nn(-c2ccc(C(F)(F)F)nn2)cc1CCCOc1c(C)cccc1CC(=O)O` [Example 340, [2-(3-{3-(1-ethylpropyl)-1-[6-(trifluoromethyl)pyridazin-3-yl]-1H-pyrazol-4-yl}propoxy)-3-methylphenyl]acetic acid] displayed a melting point of 76 to 77 °C. At PPARγ-RXRα heterodimer, this compound gave a pEC50 of 7.66. Further, in the series on KKAY mice (setting [1]), the inhibition in vivo at 0.005 % in diet worked out at 49%. The inhibition in vivo at 0.005 % in diet in the series with KKAY mice (setting [2]) was 55%.
`CCC(CC)c1nn(-c2ccc(Br)cn2)cc1CCCOc1c(CC(=O)O)cccc1OC` [Example 351, (2-{3-[1-(5-bromo-2-pyridinyl)-3-(1-ethylpropyl)-1H-pyrazol-4-yl]propoxy}-3-methoxyphenyl)acetic acid] yielded a melting point of 94 to 95 °C. Moreover, the pEC50 at PPARγ-RXRα heterodimer is 7.70. Besides, the inhibition in vivo at 0.005 % in diet in the series with KKAY mice (setting [1]) amounted to 51%. Further, the inhibition in vivo at 0.005 % in diet in the series with KKAY mice (setting [2]) came out at 49%.
